The assay concerns the target human PDE4B1 (Homo sapiens (Human), UniProt Q07343). The experiment in a line: cAMP HTRF assay to determine the activity of hPDE4B1. As to conditions: for IC50: human recombinant PDE4B1 expressed in Sf9 cells, cAMP 40 nM, N=1-2, n=2, read-out: PDE4B IC50-value. In kind it is biochemical. As for the experimental part:
A: Determination of the PDE4B IC50 Values with a cAMP HRTF® Assay to Determine the Activity of hPDE4B1
The inhibiting effect of the compounds on the enzyme activity of human PDE4B1 is measured by the quantification of 5′-AMP, which is formed from 3′,5′-adenosine monophosphate (cAMP). Human recombinant enzyme, expressed in Sf9 cells, and the HTRF (homogeneous time-resolved fluorescence) detection method are used in the assay.
The test compound or water (control) is mixed with the human recombinant PDE4B1 enzyme (4.8 U) in a buffer consisting of 44.4 mM tris-HCl, 5.28 mM MgCl2, 2.64 mM DTT and 0.044% Tween 20 (pH 7.8). After adding the cAMP enzyme substrate (final concentration 40 nM) the mixture is incubated for 30 minutes at room temperature. Then a fluorescence acceptor (Dye2 marked with cAMP), a fluorescence donor (anti-cAMP antibody marked with a europium cryptate) and the non-specific phosphodiesterase inhibitor IBMX (3-isobutyl-1-methylxanthine; final concentration 1 mM) are added. After 60 minutes the fluorescence transfer, which correlates with the amount of remaining cAMP, is measured with a microplate reader (Rubystar, BMG) at λex=337 nm, λem=620 nm and λem=665 nm. The enzyme activity is calculated from the quotient formed from the measured signal at 665 nm and that at 620 nm. The result is expressed as the percentage inhibition of enzyme activity of the control (without PDE4 inhibitor) (literature: N. Saldou et al., Comparison of recombinant human PDE4 isoforms: interaction with substrate and inhibitors, Cell. Signal. Vol. 10, No. 6, 427-440, 1998). The enzyme is omitted for measurement of the basal control.

human PDE4B1, sequence (Q07343 whole entry): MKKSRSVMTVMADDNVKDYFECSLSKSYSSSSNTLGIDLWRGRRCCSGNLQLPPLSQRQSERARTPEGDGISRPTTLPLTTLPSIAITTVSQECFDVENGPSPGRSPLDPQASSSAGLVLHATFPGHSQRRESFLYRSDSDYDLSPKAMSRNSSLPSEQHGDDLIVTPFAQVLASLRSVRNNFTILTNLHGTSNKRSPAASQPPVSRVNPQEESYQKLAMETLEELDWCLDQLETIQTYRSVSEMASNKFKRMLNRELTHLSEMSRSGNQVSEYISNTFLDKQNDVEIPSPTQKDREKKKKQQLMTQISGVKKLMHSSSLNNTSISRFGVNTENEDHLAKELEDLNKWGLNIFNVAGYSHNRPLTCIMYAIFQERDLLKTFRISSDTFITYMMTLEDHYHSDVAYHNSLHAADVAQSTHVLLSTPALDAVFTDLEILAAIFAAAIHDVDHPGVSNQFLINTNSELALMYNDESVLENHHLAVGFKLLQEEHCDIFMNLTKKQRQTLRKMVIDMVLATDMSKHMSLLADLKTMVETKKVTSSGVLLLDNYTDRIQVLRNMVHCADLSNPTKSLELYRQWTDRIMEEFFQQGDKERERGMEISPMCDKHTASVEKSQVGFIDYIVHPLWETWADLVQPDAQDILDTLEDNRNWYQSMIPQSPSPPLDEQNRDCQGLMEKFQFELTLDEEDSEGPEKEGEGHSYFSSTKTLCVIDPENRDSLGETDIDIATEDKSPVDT

As usually defined, the IC50 is the point on the concentration scale where inhibition reaches its midpoint. For `Cc1nc(-c2ccc(F)c(F)c2)nc2c1ccn2-c1ccc(C(=O)O)cc1` [Compound 26, 4-(2-(3,4-Difluorophenyl)-4-methyl-7H-pyrrolo[2,3-d]pyrimidin-7-yl)benzoic acid], the IC50 is less than 1000 nM.

On to `COc1ccc(-c2nc(C)c3ccn(-c4ccc(C(=O)O)cc4)c3n2)cc1Cl` [Compound 14, 4-(2-(3-Chloro-4-methoxyphenyl)-4-methyl-7H-pyrrolo[2,3-d]pyrimidin-7-yl)benzoic acid], for which the half-inhibitory concentration (IC50) was less than 1000 nM.

Usually inhibition stands for the relative decrease from the control value, in per cent. A higher inhibition goes with a strong effect. In turn, `CCc1nc(-c2ccc3c(c2)OCO3)nc2c1ccn2-c1cccc(OCC(=O)N(C)C)c1` [Compound 87, 2-(3-(2-(Benzo[d][1,3]dioxol-5-yl)-4-ethyl-7H-pyrrolo[2,3-d]pyrimidin-7-yl)phenoxy)-N,N-dimethylacetamide] showed an inhibition at 3 µM (inhibition of PDE4B at a test substrate concentration of 3 μM) of 52%.
